Converted amounts (≈) assume the structure as drawn. Values belong to the compound of their own block, whether it stands above or below them.
How the values were obtained:
Leishmania amazonensis [1] = assay: Antileishmanial activity against Leishmania amazonensis MHOM/BR/75/Josefa promastigotes assessed as reduction in parasite viability after 72 hrs by Neubauer chamber counting method; assay type: functional, organism-based
Leishmania amazonensis [2] = assay: Antileishmanial activity against Leishmania amazonensis promastigotes assessed as inhibition of parasite growth; assay type: functional; parameters: scale not given: the % may be the effect or the level left
Leishmania aethiopica = assay: Antileishmanial activity against Leishmania aethiopica amastigotes assessed as inhibition of parasite growth measured after 24 hrs by Alamar blue based analysis; assay type: functional, organism-based
Leishmania major [3] = assay: Antileishmanial activity against Leishmania major promastigotes assessed as reduction in parasite viability measured after 72 hrs by Giemsa-staining based microscopic analysis; assay type: functional, organism-based
[4] = Selectivity index, ratio of CC50 for human HepG2 cells to EC50 for GFP-expressing Leishmania infantum intracellular amastigotes infected in human THP-1 derived macrophage cells; assay type: toxicity, cell-based; conditions: read-out: Ratio CC50/EC50
Leishmania tropica = assay: Antileishmanial activity against Leishmania tropica promastigotes incubated for 24 hrs measured by alamar blue staining based fluorescence analysis; assay type: functional, organism-based
Leishmania donovani [5] = assay: Antileishmanial activity against Leishmania donovani MHOM/IN/00/DEVI assessed as inhibition of parasite growth measured for 48 hrs by MTT assay; assay type: functional, organism-based
HepG2 = assay: Cytotoxicity against human HepG2 cells assessed as reduction in cell growth measured after 48 hrs by SRB assay; assay type: functional
Leishmania donovani [6] = assay: Antileishmanial activity against Leishmania donovani promastigotes assessed as inhibition of parasite growth; assay type: functional, organism-based
Leishmania major [7] = assay: Antileishmanial activity against Leishmania major assessed as reduction in parasite growth; assay type: functional, organism-based
Leishmania donovani [8] = assay: Antileishmanial activity against Leishmania donovani amastigotes infected in J774.A1 macrophage assessed as inhibition of parasite growth by luciferase assay; assay type: functional, organism-based
Leishmania donovani [9] = assay: Antileishmanial activity against Leishmania donovani amastigotes infected in human THP-1 cells assessed as inhibition of parasite infection incubated for 72 hrs by DAPI staining based assay; assay type: functional, organism-based; conditions: THP-1, 72 h
Leishmania donovani [10] = assay: Antileishmanial activity against Leishmania donovani MHOM/SD/62/1S assessed as inhibition of parasite growth by resazurin/alamar blue fluorometric assay; assay type: functional, organism-based
Leishmania donovani [11] = assay: Antileishmanial activity against Leishmania donovani 9515 promastigotes assessed as inhibition of parasite growth incubated for 48 hrs by resazurin dye based assay; assay type: functional, organism-based; conditions: Leishmania donovani, 9515, 48 h
Leishmania major [12] = assay: Antileishmanial activity against Leishmania major IR-173 promastigotes assessed as inhibition of parasite growth incubated for 48 hrs by resazurin dye based assay; assay type: functional, organism-based; conditions: IR-173, 48 h
Leishmania donovani [13] = assay: Antileishmanial activity against Leishmania donovani MHOM/SD/62/1S-CL2D promastigotes assessed as reduction in parasite growth incubated for 24 hrs by resazurin dye based analysis; assay type: functional, organism-based
Leishmania donovani [14] = assay: Antileishmanial activity against Leishmania donovani promastigotes assessed as parasitic proliferation inhibition incubated for 3 days by resazurin dye based assay; assay type: functional, organism-based
Leishmania major [15] = assay: Antileishmanial activity against Leishmania major MHOM/IL/80/Friendlin assessed as reduction in parasite growth incubated for 48 hrs by MTT assay; assay type: functional, organism-based
HT-29 = assay: Antiproliferative activity against human HT-29 cells assessed as reduction in cell viability incubated for 48 hrs by MTT assay; assay type: functional, cell-based; conditions: HT-29, 48 h
[16] = Antileishmanial activity against Leishmania infantum BCN-150 promastigotes assessed as reduction in parasite growth incubated for 48 hrs by MTT assay; assay type: functional
NCI-H1299 = assay: Antiproliferative activity against human NCI-H1299 cells assessed as reduction in cell viability incubated for 48 hrs by MTT assay; assay type: functional, cell-based; conditions: NCI-H1299, 48 h
Leishmania donovani [17] = assay: Antileishmanial activity against Leishmania donovani MHOM/SD/62/1S amastigotes assessed as reduction in cell growth; assay type: functional, organism-based
Leishmania braziliensis [18] = assay: Antileishmanial activity against Leishmania braziliensis MHOM/BR/75/M2903 strain promastigotes assessed as reduction in cell viability incubated for 48 hrs by MTT assay; assay type: functional, organism-based; conditions: MHOM/BR/75/M2903, 48 h
Leishmania mexicana = assay: Antileishmanial activity against Leishmania mexicana promastigotes; assay type: functional, organism-based
Leishmania major [19] = assay: Antileishmanial activity against Leishmania major amastigotes assessed as reduction in parasite growth incubated for 48 hrs by resazurin dye based analysis; assay type: functional, organism-based
[20] = Cytotoxicity against African green monkey Vero cells assessed as reduction in cell growth; assay type: toxicity, cell-based, Chlorocebus sabaeus
Leishmania braziliensis [21] = assay: Antileishmanial activity against Leishmania braziliensis promastigotes; assay type: functional, organism-based
Leishmania donovani [22] = assay: Antileishmanial activity against Leishmania donovani amastigotes; assay type: functional, organism-based
Leishmania donovani [23] = assay: Antileishmanial activity against Leishmania donovani amastigotes assessed as parasite growth inhibition incubated for 72 hrs by MTS assay; assay type: functional, organism-based
[24] = Cytotoxicity against HEK293 cells assessed as reduction in cell viability incubated for 6 days by CellTiter-Glo luminescent cell viability assay; assay type: toxicity, cell-based; conditions: human
[25] = Leishmania donovani, 72 h, read-out: IC50

Compound: CN(C)c1ccc(-c2nc(C(=O)NCCCl)cc3c2[nH]c2ccccc23)cc1
- IC50 (Leishmania amazonensis [1]): 16.8 µM

Compound: C/C=C1\NC(=S)NC1=O
- Activity (Leishmania amazonensis [2]): 28%

Compound: Cc1ccc(-n2cc(C3=NCCS3)c(-c3ccccc3)n2)cc1
- IC50 (Leishmania aethiopica): 1.02 µg/mL (≈ 3.19 µM)

Compound: COC(=O)C1=C(C)NC(=S)NC1c1ccc(Cl)cc1 (stereo not drawn)
- EC50 (Leishmania major [3]): 15.5 µM

Compound: Nc1ccn(C(=O)C2CCC3(CC2)OOC2(O3)C3CC4CC(C3)CC2C4)n1 (stereo not drawn)
- selectivity ratio [4]: < 5
- IC50 (Leishmania tropica): 161 µM

Compound: C(=N/CCCN(N1CCCCC1)N1CCCCC1)/c1cc(-c2ccccc2)c2ccc3c(-c4ccccc4)cc(/C=N/CCCN(N4CCCCC4)N4CCCCC4)nc3c2n1
- IC50 (Leishmania donovani [5]): 2.52 µM
- CC50 (HepG2): 1.64 µM

Compound: COc1ccc(Cn2c(C)cc(O)c(C(=O)Nc3ccc(C)cc3)c2=O)cc1
- IC50 (Leishmania donovani [6]): 55 µM

Compound: CCCCCCCCCn1cc(CN2CCN(C(=O)c3c(C)nc4ccc(C)cn34)CC2)nn1
- IC50 (Leishmania major [7]): 15.1 µM

Compound: CC(C)CC1NC(=S)NC1=O (stereo not drawn)
- Activity (Leishmania amazonensis [2]): 32%

- IC50 (Leishmania donovani [9]): 1.45 µM
Compound: CCCC(=O)N1N=C(c2ccccc2)CC1c1cn(-c2ccc(Cl)cc2)nc1-c1ccccc1 (stereo not drawn)
- IC50 (Leishmania donovani [8]): 0.89 µM

Compound: O=C(N/N=C/c1ccc([N+](=O)[O-])o1)c1ccc(OCc2ccccc2)cc1
- IC50 (Leishmania donovani [10]): 4.53 µM
- IC50 (Leishmania donovani [11]): 4.48 µM
- IC50 (Leishmania major [12]): 38.5 µM

Compound: CN(C)c1ccc(-c2nc(C3=NCCO3)cc3c2[nH]c2ccccc23)cc1
- IC50 (Leishmania amazonensis [1]): 6.1 µM

Compound: CCCCCCCCCCCCCCCC(=O)CC(=O)N1CCC[C@H]1COP(=O)([O-])OCC[N+](C)(C)C
- IC50 (Leishmania donovani [13]): 52.6 µM

Compound: C(=N/CCCN(N1CCOCC1)N1CCOCC1)/c1cc(-c2ccccc2)c2ccc3c(-c4ccccc4)cc(/C=N/CCCN(N4CCOCC4)N4CCOCC4)nc3c2n1
- IC50 (Leishmania donovani [5]): 2.52 µM
- CC50 (HepG2): 1.64 µM

Compound: CCOC(=O)C1=CNC(=S)NC1c1ccc(Cl)cc1 (stereo not drawn)
- IC50 (Leishmania donovani [14]; [25]): 29.3 µg/mL (≈ 98.7 µM)

Compound: N#C[Se]/C=C/c1ccccc1
- IC50 (Leishmania major [15]): 3.3 µM
- IC50 (HT-29): 11.9 µM
- IC50 [16]: 3.7 µM
- IC50 (NCI-H1299): 11.9 µM

Compound: Cc1ccc2c(NCCCCCNC(=O)c3cccc(/C=C/C(=O)c4ccc(C)o4)c3)ccnc2c1
- IC50 (Leishmania donovani [17]): 0.46 µM

Compound: COc1ccc(-n2cc(CCC(=O)OC3=C(C=C(C)C)C(=O)c4ccccc4C3=O)nn2)cc1
- IC50 (Leishmania braziliensis [18]): 15.9 µM

- IC50 (Leishmania mexicana): 4.57 µM
Compound: COc1cc(C(=O)/C=C/c2cccc([N+](=O)[O-])c2)ccc1OCC=C(C)C

Compound: C(=N/CCCN(c1cccnc1)c1cccnc1)/c1cc(-c2ccccc2)c2ccc3c(-c4ccccc4)cc(/C=N/CCCN(c4cccnc4)c4cccnc4)nc3c2n1
- IC50 (Leishmania donovani [5]): 2.52 µM
- CC50 (HepG2): 1.64 µM

Compound: N#C[Se]c1ccc2c(c1)OCO2
- IC50 (Leishmania major [15]): 4.6 µM
- IC50 (HT-29): 61.2 µM
- IC50 [16]: 3.3 µM
- IC50 (NCI-H1299): 82.5 µM

Compound: Cc1ccc(-n2cc(C3N[C@H](C(N)=O)CS3)c(-c3ccccc3)n2)cc1 (stereo partly drawn)
- IC50 (Leishmania aethiopica): 1.02 µg/mL (≈ 2.8 µM)

Compound: CC(C)c1ccc(COc2ccc(C(=O)N/N=C\c3ccc([N+](=O)[O-])o3)cc2)cc1
- IC50 (Leishmania major [19]): 0.62 µM

Compound: C(=N/CCCN(c1ccncc1)c1ccncc1)/c1cc(-c2ccccc2)c2ccc3c(-c4ccccc4)cc(/C=N/CCCN(c4ccncc4)c4ccncc4)nc3c2n1
- IC50 (Leishmania donovani [5]): 2.52 µM
- CC50 (HepG2): 1.64 µM

Compound: Cc1ccc2nc(C)c(C(=O)N3CCN(Cc4cn(-c5ccc(C(C)(C)C)cc5)nn4)CC3)n2c1
- IC50 (Leishmania major [7]): 15.1 µM

- IC50 (Leishmania donovani [9]): 1 µM
Compound: CC(=O)N1N=C(c2ccccc2)CC1c1cn(-c2ccc(C)cc2)nc1-c1ccccc1 (stereo not drawn)
- IC50 (Leishmania donovani [8]): 0.05 µM

- IC50 (Leishmania braziliensis [21]): 0.1 µM
Compound: Cc1cc(OCCCCNC(C)(C)C)cc2oc3cc(OCCCCNC(C)(C)C)cc(O)c3c(=O)c12
- IC50 [20]: 15.5 µM

- IC50 (Leishmania donovani [22]): 0.38 µM
Compound: CCCCCCCn1cc(CN2C(=O)CN(/N=C/c3ccc([N+](=O)[O-])o3)C2=O)nn1
- IC50 (Leishmania donovani [23]): 0.18 µM
- IC50 at 6 days [24]: > 100 µM

Compound: CCOC(=O)C1=CNC(=O)NC1c1ccc(C)cc1 (stereo in doubt; 80)
- IC50 (Leishmania donovani [14]; [25]): 29.3 µg/mL (≈ 113 µM)

Compound: CCOC(=O)C1=CNC(=O)NC1c1ccc(C)cc1 (stereo in doubt; 82)
- IC50 (Leishmania donovani [14]): 28.3 µg/mL (≈ 109 µM)
